Measured values as given in US20100143960A1, “CYANINE DERIVATIVES, FLUORESCENT CONJUGATES CONTAINING SAME AND USE THEREOF” (CIS BIO INTERNATIONAL, priority 2007, published 2010).

How the values were obtained:
[1] = aqueous medium, nonsulfonated; cited from earlier work
[2] = in solution; cited from earlier work
[3] = test system: fusion protein GST-ST26-Flag in CHO-K1 cells; assay: Labeling of an intracellular protein in intact living cells, detected by HTRF measurement; type: cell-based; details: 5 μM substrate, 3 h at 20° C.
Text: This example is targeted at showing that the compounds according to the invention comprising a phosphonate ester and conjugated to a substrate (benzylguanine, BG) for a “snaptag” suicide enzyme (ST26) are capable of passing through the cell membrane and of labeling a fusion protein expressed by the cell and comprising the snaptag enzyme ([…]), in contrast to the use of a cyanine not comprising phosphonate esters (DY-647).
The HTRF technique is used to test the intracellular labeling of a protein by the cyanine derivatives according to the invention, on living cells, using the recombinant protein GST-ST26-Flag produced by the cells and labeled indirectly via an anti-GST antibody conjugated with a europium trisbipyridine cryptate (anti-GST-EuTBP).
After culturing, CHO-K1 cells are transfected in the presence of lipofectamine 2000 (0.8 μl per 50 μl of transfection solution, Lipofectamine™ Transfection Reagent, Invitrogen Inc., Carlsbad, Calif.) at the rate of 50 000 cells per well in a black 96-well microplate. The transfected cells are subsequently incubated for 24 h at 37° C., 5% CO2. […]
The fluorescence at 665 nm is measured on an HTRF reader (RUBYstar, BMG Labtechnologies). […]

[4] = test system: stable CHO line expressing SnapTag in the nucleus; assay: Test of cell permeability of benzylguanine conjugates (fluorescence microscopy); type: cell-based; details: 5 μM in culture medium, one hour contact, washing, additional hour, microscopic analysis, FIG. 1
Description: The cells used result from a stable CHO line expressing SnapTag in the nucleus by virtue of the NLS sequence. The compounds are added to the culture medium (DMEM medium supplemented with 10% of inactivated SVF, 30 min at 60° C.) at a concentration of 5 μM and left in contact with the cells for one hour. After the incubation, three washing operations are carried out with culture medium. An additional hour of incubation solely in the medium is carried out in order to make possible the labeling of the SnapTag by the substrate. Staining of the […] is subsequently carried out with DAPI before the microscopic analysis.
The above images are represented in FIG. 1.

[5] = Comparison of quantum yields / fluorescence spectrum of cyanine derivatives carrying phosphonate groups; type: physicochemical
Description: Fluorescence spectrum: Measurement on a Perkin-Elmer LS50 device, the samples were diluted in phosphate buffer 0.1M pH 7 containing 0.1% BSA (maximum absorbance=0.04 at the excitation wavelength). Excitation: 600 nm (10 nm). Emission (max)=670.5 nm (quantum yield=13%).
The phosphate/phosphonate ester functional groups of the cyanine derivatives according to the invention are hydrolyzed in the cell by cell enzymes to give phosphate/phosphonate functional groups. The quantum yields of the cyanine derivatives carrying phosphonate groups, thus corresponding to the compounds according to the invention as present in the cell after hydrolysis of the ester functional groups, were measured in order to determine if the position of the phosphate/phosphonate ester groups influences the photophysical properties of the compounds.

[6] = phosphate buffer 0.1M pH 7 containing 0.1% BSA, excitation 600 nm

For `CN1C(=CC=C2CCCC(C=CC3=[N+](C)c4ccccc4C3(C)C)=C2Cl)C(C)(C)c2ccccc21.[O-][Cl+3]([O-])([O-])[O-]` [IR-786], the solubility [1] is listed as “less than 10 μM”.

In the case of `CC1(C)C(/C=C/C=C/C=C/C=C2\N(CCCCS(=O)(=O)O)c3ccc4ccccc4c3C2(C)C)=[N+](CCCCS(=O)(=O)[O-])c2ccc3ccccc3c21` [indocyanine green], the “concentration above which quantum yield falls due to formation of aggregates” value [2] is listed as “greater than 125 μM”.

For `CCN1/C(=C/C=C/C=C/C2=[N+](CC)c3ccc(S(=O)(=O)[O-])cc3C2(C)C)C(C)(CCCC(=O)NCc2ccc(COc3nc(N)nc4[nH]cnc34)cc2)c2cc(S(=O)(=O)O)ccc21` (stereo not shown) [BG-DY647], the “percentage of intracellular labeling (signal at 665 nm passive labeling / total labeling)” value ([3]; CHO-K1, HTRF with anti-GST-EuTBP, FIG. 2) was “penetrates poorly into cells”, the “passes through the cell membrane and labels an intracellular protein” value ([3]; intact CHO-K1 cells) was “not the case” and the “passage through the plasma membrane of the cells (intracellular fluorescence)” value [4] was “have not passed through the plasma membrane”.

For “2-{(1E,3E,5E)-5-[3-(5-Carboxypentyl)-3-methyl-4-ethyl-5-phosphono-1,3-dihydro-2H-indol-2-ylidene]penta-1,3-dienyl}-5-phosphono-3,3-dimethyl-1-(4-ethyl)-3H-indolium [compound 19]”, the “Emission (max)” value [5, 6] was 670.5 nm, the quantum yield [5, 6] was 13% and the “Wavelength of max. absorption” value ([5]; phosphonate (hydrolyzed) form) was 649 nm. The “Wavelength of max. emission” value ([5]; phosphonate (hydrolyzed) form) was 670 nm and the quantum yield ([5]; phosphonate (hydrolyzed) form) was 13%.
